Assay results taken from patent publication US20100169988A1, “MEANS AND METHODS FOR ISOLATING AND DETERMINING NOVEL TARGETS FOR THE TREATMENT OF NEURODEGENERATIVE, NEUROLOGICAL OR NEUROPSYCHIATRIC DISORDERS AND COMPOSITIONS COMPRISING THE SAME” (priority 2006, published 2010).

Molecular target: T1, γ-secretase (Homo sapiens, UniProt P49768)
T1 construct: endogenous in cells; host or cells: cells transfected with α-/β-CTF-Citrine constructs
Assay: Subcellular localization of Citrine-labeled α-CTF/β-CTF constructs
Assay type: cell-based
Conditions: Hek 293 cells transfected with α-CTF or β-CTF Citrine constructs
Source text: In a first step, the CTF constructs alone were transfected, without any additional influence on subcellular localization and an entirely homogeneous distribution of Citrine fluorescence throughout the cell was observed. Like APP, these constructs first require cleavage of the signal peptide by Signal Peptidase. However, these “precleaved” CTFs never require ectodomain-shedding in the conventional sense of α- or β-secretase cleavage, which is time consuming not only because of the cleavage step alone, but because of the protein trafficking required to make APP accessible to the secretases. PS cleavage was therefore assumed to take place much more rapidly than is the case for wtAPP, whereupon the same experiments were performed with γ-secretase inhibitor L-685,458 aiming at prolonging the half-life of the uncleaved CTFs. […] Apart from this stabilization, however, no obvious difference was discerned between the subcellular localization of the two constructs.
Subcellular protein distribution of fluorescently tagged proteins or proteins stained as described supra was analyzed on a Leica TCS/SP2 confocal microscope. Pictures were acquired at a resolution of 1024×1024 using the 63×H2O immersion objective. Typically, 5-8 z-axis sections were recorded across the entire height of embedded cells so that typical section separations were 0.5 μm. […]

SMILES: CC(C)C[C@H](NC(=O)[C@H](Cc1ccccc1)C[C@@H](O)[C@H](Cc1ccccc1)NC(=O)OC(C)(C)C)C(=O)N[C@@H](Cc1ccccc1)C(N)=O [L-685,458]
- subcellular localization of uncleaved CTF-Citrine: accumulation in ER and Golgi was observed
